Test results from US6506607B1, “Methods and compositions for the identification and assessment of prostate cancer therapies and the diagnosis of prostate cancer” (Millennium Pharmaceuticals, Inc., priority 1997, dated 2003).

System: LNCaP cells
Test: Gene expression in bicalutamide-treated vs untreated LNCaP cells (subtraction library, Gene Expression Micro-Array)
Format: cell-based
Conditions: 25 hours

CC(O)(CS(=O)(=O)c1ccc(F)cc1)C(=O)Nc1ccc(C#N)c(C(F)(F)F)c1 (stereo not shown) [bicalutamide, Bicalutamide]
FOLD INCREASE IN mRNA: Cyclin-dependent kinase inhibitor 1 {268652} (SEQ ID NO 41, 100 nM bicalutamide): 4.5 fold
FOLD INCREASE IN mRNA: Activating transcription factor 3 (ATF3) {428248} (SEQ ID NO 42, 100 nM bicalutamide): 11.5 fold
FOLD INCREASE IN mRNA: Defender against cell death 1 {488974} (SEQ ID NO 43, 100 nM bicalutamide): 2.9 fold
FOLD INCREASE IN mRNA: CLCN3 {346749} (SEQ ID NO 46, 100 nM bicalutamide): 2.4 fold
FOLD INCREASE IN mRNA: Phosphotyrosine independent ligand p62 for the Lck SH2 domain {510278} (SEQ ID NO 47, 100 nM bicalutamide): 5.8 fold
FOLD INCREASE IN mRNA: Seryl-tRNA synthetase {510431} (SEQ ID NO 48, 100 nM bicalutamide): 4.3 fold
FOLD INCREASE IN mRNA: D53 (hD53) {510461} (SEQ ID NO 49, 100 nM bicalutamide): 3.8 fold
FOLD INCREASE IN mRNA: Unknown human protein {512334} (SEQ ID NO 50, 100 nM bicalutamide): 3.5 fold
FOLD INCREASE IN mRNA: Thioredoxin reductase {510377} (SEQ ID NO 51, 100 nM bicalutamide): 2.6 fold
FOLD INCREASE IN mRNA: ORF and HepG2 (identical sequence) {510258} (SEQ ID NO 53, 100 nM bicalutamide): 5.3 fold
FOLD INCREASE IN mRNA: 4F2 cell-surface antigen heavy chain {510504} (SEQ ID NO 54, 100 nM bicalutamide): 8.1 fold
FOLD INCREASE IN mRNA: Asparagine synthetase {510206} (SEQ ID NO 55, 100 nM bicalutamide): 2.8 fold
FOLD INCREASE IN mRNA: pM5 {509550} (SEQ ID NO 56, 100 nM bicalutamide): 2.3 fold
FOLD INCREASE IN mRNA: Archain {488510} (SEQ ID NO 57, 100 nM bicalutamide): 2.3 fold
FOLD INCREASE IN mRNA: Gravin {488106} (SEQ ID NO 58, 100 nM bicalutamide): 2.8 fold
FOLD INCREASE IN mRNA: Signal recognition particle receptor alpha subunit {358710} (SEQ ID NO 60, 100 nM bicalutamide): 2.6 fold
FOLD INCREASE IN mRNA: Phosphoenolpyruvate carboxykinase {363272} (SEQ ID NO 61, 100 nM bicalutamide): 3.4 fold
FOLD INCREASE IN mRNA: Protein translation factor SUI1 homolog {365542} (SEQ ID NO 62, 100 nM bicalutamide): 2.7 fold
FOLD INCREASE IN mRNA: NADPH-flavin reductase {365775} (SEQ ID NO 63, 100 nM bicalutamide): 3.7 fold
FOLD INCREASE IN mRNA: Peptidyl-prolyl CIS-trans isomerase B precursor {376399} (SEQ ID NO 64, 100 nM bicalutamide): 2.5 fold
FOLD INCREASE IN mRNA: Aspartate aminotransferase {417270} (SEQ ID NO 65, 100 nM bicalutamide): 3.1 fold
FOLD INCREASE IN mRNA: OS-9 precursor {417136} (SEQ ID NO 66, 100 nM bicalutamide): 2.7 fold
FOLD INCREASE IN mRNA: KIAA0025 and PIGHEP3 homologous region {418227} (SEQ ID NO 67, 100 nM bicalutamide): 5.3 fold
FOLD INCREASE IN mRNA: Glucosamine-fructose-6-phosphate aminotransferase {469633} (SEQ ID NO 68, 100 nM bicalutamide): 3.2 fold
FOLD INCREASE IN mRNA: ADP-ribosylation factor 1 {471384} (SEQ ID NO 69, 100 nM bicalutamide): 3.1 fold
FOLD INCREASE IN mRNA: Glycyl-tRNA synthetase {471164} (SEQ ID NO 70, 100 nM bicalutamide): 3.6 fold
FOLD INCREASE IN mRNA: Prion protein (PrP) {470074} (SEQ ID NO 71, 100 nM bicalutamide): 3.1 fold
FOLD INCREASE IN mRNA: Mitochondrial serine hydroxymethyltransferase {344080} (SEQ ID NO 72, 100 nM bicalutamide): 2.4 fold
FOLD INCREASE IN mRNA: Alanyl-TRNA synthetase {343998} (SEQ ID NO 73, 100 nM bicalutamide): 3.8 fold
FOLD INCREASE IN mRNA: Translocon-associated protein {324179} (SEQ ID NO 76, 100 nM bicalutamide): 2.5 fold
FOLD INCREASE IN mRNA: Translation initiation factor 5 (elF5) {299843} (SEQ ID NO 78, 100 nM bicalutamide): 2.3 fold
FOLD INCREASE IN mRNA: RESTIN {291620} (SEQ ID NO 79, 100 nM bicalutamide): 2.3 fold
FOLD INCREASE IN mRNA: Transcription elongation factor S-II {257458} (SEQ ID NO 80, 100 nM bicalutamide): 2.8 fold
FOLD INCREASE IN mRNA: Human clone 137308 {252491} (SEQ ID NO 81, 100 nM bicalutamide): 2.6 fold
FOLD INCREASE IN mRNA: Glutamate-cysteine ligase regulatory subunit {245939} (SEQ ID NO 82, 100 nM bicalutamide): 4.1 fold
FOLD INCREASE IN mRNA: Fatty aldehyde dehydrogenase {208950} (SEQ ID NO 83, 100 nM bicalutamide): 3.1 fold
FOLD INCREASE IN mRNA: MHC class I HLA-Bw58 gene {203448} (SEQ ID NO 84, 100 nM bicalutamide): 2.3 fold
FOLD INCREASE IN mRNA: Mitochondrial NDA (P)+ dependent malic enzyme {109375} (SEQ ID NO 85, 100 nM bicalutamide): 2.5 fold
FOLD INCREASE IN mRNA: GADD 153 = Growth arrest and DNA-damage inductor gene {362009} (SEQ ID NO 136, 100 nM bicalutamide): 11.1 fold
FOLD INCREASE IN mRNA: KIAA0025 gene {30476} (SEQ ID NO 137, 100 nM bicalutamide): 6.7 fold
FOLD INCREASE IN mRNA: Phosphotyrosine independent ligand p62 for the Lck SH2 domain {471392} (SEQ ID NO 138, 100 nM bicalutamide): 6.4 fold
FOLD INCREASE IN mRNA: 150 kDa oxygen-regulated protein ORP150 {486858} (SEQ ID NO 139, 100 nM bicalutamide): 5.9 fold
FOLD INCREASE IN mRNA: 78 KD Glucose regulated protein precursor {366350} (SEQ ID NO 140, 100 nM bicalutamide): 4 fold
FOLD INCREASE IN mRNA: Smad 1 {345928} (SEQ ID NO 141, 100 nM bicalutamide): 3.9 fold
FOLD INCREASE IN mRNA: EST28g11 WATM1 {486703} (SEQ ID NO 142, 100 nM bicalutamide): 3.8 fold
FOLD INCREASE IN mRNA: ESTs {322080} (SEQ ID NO 143, 100 nM bicalutamide): 3.7 fold
FOLD INCREASE IN mRNA: Seryl-tRNA sythetase {129892} (SEQ ID NO 144, 100 nM bicalutamide): 3.6 fold
FOLD INCREASE IN mRNA: HU-K4 {470677} (SEQ ID NO 145, 100 nM bicalutamide): 3.6 fold
FOLD INCREASE IN mRNA: ESTs {126530} (SEQ ID NO 146, 100 nM bicalutamide): 3.5 fold
FOLD INCREASE IN mRNA: ESTs {429327} (SEQ ID NO 147, 100 nM bicalutamide): 3.5 fold
FOLD INCREASE IN mRNA: Vascular endothelial growth factor (VEGF (165)) {488697} (SEQ ID NO 148, 100 nM bicalutamide): 3.2 fold
FOLD INCREASE IN mRNA: ESTs {50914} (SEQ ID NO 149, 100 nM bicalutamide): 3.1 fold
FOLD INCREASE IN mRNA: ESTs {279847} (SEQ ID NO 150, 100 nM bicalutamide): 3.1 fold
FOLD INCREASE IN mRNA: ESTs {361548} (SEQ ID NO 151, 100 nM bicalutamide): 3.1 fold
FOLD INCREASE IN mRNA: ESTs {364730} (SEQ ID NO 152, 100 nM bicalutamide): 3.1 fold
FOLD INCREASE IN mRNA: ESTs {470212} (SEQ ID NO 153, 100 nM bicalutamide): 3.1 fold
FOLD INCREASE IN mRNA: ESTs {471210} (SEQ ID NO 154, 100 nM bicalutamide): 3.1 fold
FOLD INCREASE IN mRNA: ESTs {289300} (SEQ ID NO 155, 100 nM bicalutamide): 3 fold
FOLD INCREASE IN mRNA: ESTs {427725} (SEQ ID NO 156, 100 nM bicalutamide): 3 fold
FOLD INCREASE IN mRNA: ESTs {428217} (SEQ ID NO 157, 100 nM bicalutamide): 2.9 fold
FOLD INCREASE IN mRNA: rfp transforming protein {485268} (SEQ ID NO 158, 100 nM bicalutamide): 2.8 fold
FOLD INCREASE IN mRNA: ESTs {487420} (SEQ ID NO 159, 100 nM bicalutamide): 2.8 fold
FOLD INCREASE IN mRNA: 60S RIBOSOMAL PROTEIN L18A {509699} (SEQ ID NO 160, 100 nM bicalutamide): 2.8 fold
FOLD INCREASE IN mRNA: ESTs {31943} (SEQ ID NO 161, 100 nM bicalutamide): 2.7 fold
FOLD INCREASE IN mRNA: ESTs {376271} (SEQ ID NO 162, 100 nM bicalutamide): 2.7 fold
FOLD INCREASE IN mRNA: ESTs {469642} (SEQ ID NO 163, 100 nM bicalutamide): 2.7 fold
FOLD INCREASE IN mRNA: ESTs {471826} (SEQ ID NO 164, 100 nM bicalutamide): 2.7 fold
FOLD INCREASE IN mRNA: KIAA0262 {485008} (SEQ ID NO 165, 100 nM bicalutamide): 2.7 fold
FOLD INCREASE IN mRNA: ESTs {292082} (SEQ ID NO 166, 100 nM bicalutamide): 2.6 fold
FOLD INCREASE IN mRNA: ESTs {365557} (SEQ ID NO 167, 100 nM bicalutamide): 2.6 fold
FOLD INCREASE IN mRNA: Immunogloblin light chain (lambda) {119218} (SEQ ID NO 168, 100 nM bicalutamide): 2.5 fold
FOLD INCREASE IN mRNA: ELP-1 {147979} (SEQ ID NO 169, 100 nM bicalutamide): 2.5 fold
FOLD INCREASE IN mRNA: TRAMP protein {149355} (SEQ ID NO 170, 100 nM bicalutamide): 2.5 fold
FOLD INCREASE IN mRNA: ESTs {294078} (SEQ ID NO 171, 100 nM bicalutamide): 2.5 fold
FOLD INCREASE IN mRNA: ESTs {291005} (SEQ ID NO 172, 100 nM bicalutamide): 2.5 fold
FOLD INCREASE IN mRNA: ESTs {365907} (SEQ ID NO 173, 100 nM bicalutamide): 2.5 fold
FOLD INCREASE IN mRNA: ESTs {427801} (SEQ ID NO 174, 100 nM bicalutamide): 2.5 fold
FOLD INCREASE IN mRNA: ESTs {469515} (SEQ ID NO 175, 100 nM bicalutamide): 2.5 fold
FOLD INCREASE IN mRNA: Tral mRNA for human homologue of murine tumor rejection antigen gp96 {509486} (SEQ ID NO 176, 100 nM bicalutamide): 2.5 fold
FOLD INCREASE IN mRNA: Biotin-[propionyl-CoA-carboxylase (ATP-hydrolysing)] {176590} (SEQ ID NO 177, 100 nM bicalutamide): 2.4 fold
FOLD INCREASE IN mRNA: Tral mRNA for human homologue of murine tumor rejection antigen gp96 {242829} (SEQ ID NO 178, 100 nM bicalutamide): 2.4 fold
FOLD INCREASE IN mRNA: Cancellous bone osteoblast mRNA for GS3786 {486005} (SEQ ID NO 179, 100 nM bicalutamide): 2.4 fold
FOLD INCREASE IN mRNA: ESTs {509583} (SEQ ID NO 180, 100 nM bicalutamide): 2.4 fold
FOLD INCREASE IN mRNA: ESTs {44551} (SEQ ID NO 181, 100 nM bicalutamide): 2.3 fold
FOLD INCREASE IN mRNA: ESTs {245853} (SEQ ID NO 182, 100 nM bicalutamide): 2.3 fold
FOLD INCREASE IN mRNA: ESTs {306075} (SEQ ID NO 183, 100 nM bicalutamide): 2.3 fold
FOLD INCREASE IN mRNA: ESTs {322143} (SEQ ID NO 184, 100 nM bicalutamide): 2.3 fold
FOLD INCREASE IN mRNA: ESTs {322749} (SEQ ID NO 185, 100 nM bicalutamide): 2.3 fold
FOLD INCREASE IN mRNA: ESTs {359877} (SEQ ID NO 186, 100 nM bicalutamide): 2.3 fold
FOLD INCREASE IN mRNA: ESTs {360446} (SEQ ID NO 187, 100 nM bicalutamide): 2.3 fold
FOLD INCREASE IN mRNA: ESTs {360789} (SEQ ID NO 188, 100 nM bicalutamide): 2.3 fold
FOLD INCREASE IN mRNA: Protein tyrosine kinase t-Rorl {418257} (SEQ ID NO 189, 100 nM bicalutamide): 2.3 fold
FOLD INCREASE IN mRNA: ESTs {486712} (SEQ ID NO 190, 100 nM bicalutamide): 2.3 fold
FOLD INCREASE IN mRNA: ESTs {489106} (SEQ ID NO 191, 100 nM bicalutamide): 2.3 fold
